Test system: PKC-neg-40B-Luc minigene in 293T cells
Test: Luciferase splicing reporter screen of the LOPAC 1280 library
Type: cell-based
Conditions: for luciferase readings versus background reading: LOPAC screen, result in words; for Avg Med norm: luciferase fold-increase over the Average Median norm for each plate exclusive of Esrp1 control wells; for Avg Med norm / Avg DMSO Norm: 293T reporter cells, 24 hours; for Avg DMSO Norm: luciferase fold-increase over the Average control (DMSO) norm
Experimental: Briefly, compounds from the LOPAC™ library were dissolved in DMSO. 293T cells (which express predominantly FGFR2-IIIc) which stably express the PKC-neg-40B-Luc minigene, as described in Example 1, were incubated with the compounds or with a DMSO control for 24 hours. After the incubation period, BriteLite luciferase readout reagent was added to each well and the plates were read on an Analyst HT multimode plate reader (Molecular Devices). As positive controls, we also added a cDNA encoding the mouse Esrp1 protein to individual wells on each plate.
The results were then ranked in order from largest fold change over background down to the DMSO blank.

| Structure (SMILES) | luciferase readings versus background reading | Avg Med norm [fold] | Avg DMSO Norm [fold] |
| --- | --- | --- | --- |
| CCCCCCCCCCCCCC(=O)O[C@@H]1[C@@H](C)[C@@]2(O)[C@@H](C=C(CO)C[C@]3(O)C(=O)C(C)=C[C@@H]23)[C@@H]2C(C)(C)[C@]12OC(C)=O [Phorbol 12-myristate 13-acetate] | significantly over the background reading | 3.825 | 4.122 |
| C[C@H]1C[C@H]2[C@@H]3CCC4=CC(=O)C=C[C@]4(C)[C@@]3(Cl)[C@@H](O)C[C@]2(C)[C@@]1(O)C(=O)CO [Beclomethasone, 9alpha-Chloro-16beta-methyl-1,4-pregnadiene-11beta,17alpha,-21triol-3,20-dione] | significantly over the background reading | 1.861 | 1.996 |
| NC(N)=NC(=O)c1nc(Cl)c(N2CCCCCC2)nc1N [5-(N,N-hexamethylene)amiloride] |  | 1.643 | 1.762 |
| Cc1ccc(O)c(N=Nc2ccccc2)n1 [SIB 1757, 6-Methyl-2-(phenylazo)-3-pyridinol] | significantly over the background reading | 2.598 | 2.803 |
| COc1cc([C@@H]2c3cc4c(cc3[C@H](O)[C@H]3COC(=O)[C@H]23)OCO4)cc(OC)c1OC [Podophyllotoxin] | significantly over the background reading | 2.036 | 1.985 |
| CC(C)NCC(O)c1ccc(O)c(O)c1.Cl (racemic) [(±)-Isoproterenol hydrochloride] |  | 1.713 | 1.663 |
| OC[C@H]1O[C@@H](n2cnc3c(Nc4ccccc4)ncnc32)[C@H](O)[C@@H]1O [N6-Phenyladenosine] |  | 1.942 | 2.095 |
| CC(C)NC[C@H](O)c1ccc(O)c(O)c1.O=C(O)C(O)C(O)C(=O)O [R(−)-Isoproterenol(+)-bitartrate] | significantly over the background reading | 1.996 | 1.943 |
| COc1cccc(-c2cc(=O)c3ccccc3o2)c1N [PD 98,059, 2-(2-Amino-3-methoxyphenyl)-4H-1-benzopyran-4-one] |  | 1.783 | 1.923 |
| Clc1ccccc1C(c1ccccc1)(c1ccccc1)n1ccnc1 [Clotrimazole, 1-(o-Chlorotrityl)-imidazole] |  | 1.671 | 1.792 |
| CCNC(=O)[C@H]1O[C@@H](n2cnc3c(NCc4ccccc4)ncnc32)[C@H](O)[C@@H]1O [N6-Benzyl-5′-N-ethylcarboxamidoadenosine] | significantly over the background reading | 1.822 | 1.953 |
| COc1cccc(NC(=O)/C=C/c2ccc(Cl)cc2)c1 [SB-366791] |  | 1.665 | 1.795 |
| CNC[C@H](O)c1ccc(O)c(O)c1.O=C(O)C(O)C(O)C(=O)O [(−)-Epinephrine bitartrate] |  | 1.696 | 1.654 |
| CNCC(O)c1ccc(O)c(O)c1.Cl (racemic) [(±)-Epinephrine hydrochloride] |  | 1.714 | 1.674 |

Reference: patent US9127078B2, “Methods and compositions using splicing regulatory proteins involved in tumor suppression” (The Trustees of the University of Pennsylvania, priority 2008, dated 2015)
